Key:
EcDsbA [1] = target: T1, EcDsbA (Escherichia coli, UniProt P0AEG4); assay: Compound soaking into EcDsbA crystals and X-ray diffraction; assay type: binding; conditions: crystals soaked with compound at 10 mM (5% DMSO) for 3–6 h
T1 construct: made in house; protein recovered from the periplasm of the expressing cells
Description: The synthesised analogues were soaked into crystals of EcDsbA and X-ray diffraction data was collected for each analogue in order to determine their site of binding. […] The carboxy moiety of 15 was oriented towards the left-hand side of the binding groove, where more polar residues are located. The phenyl ring of the aniline moiety occupied the hydrophobic end of the binding pocket with the nitrogen atom of the amine linker positioned in close proximity to Gln35. […] Although anisidine 16 was occupying a larger region of the EcDsbA binding groove, the shift appeared to have interrupted the π-stacking interactions the benzofuran was making with the His32 side chain previously (Figure 1B and Figure S1).
EcDsbA was crystallised as previously described. Briefly, 1 µL of 30 mg/mL EcDsbA was mixed with an equal volume of crystallisation buffer (11–13% PEG8000, 5–7.5% glycerol, 1 mM CuCl2, 100 mM, sodium cacodylate pH 6.1) and equilibrated against 500 µL of reservoir buffer at 20 °C using hanging drop vapour diffusion. For compound soaking, crystals were transferred into 2 µL drops of 24% PEG8000, 22% glycerol, and 100 mM sodium cacodylate (pH 6.1) containing a compound of interest at the final concentration of 10 mM (5% DMSO) and were incubated for 3–6 h. Crystals were mounted on loops and flash-cooled in liquid nitrogen.
Datasets were collected at the Australian synchrotron on MX1 and MX2 beamlines using the Blue-Ice software (Irvine, CA, USA). MX1 beamline was equipped with an ADSC Quantum 210r detector and MX2 with an ADSC Quantum 315r detector. All datasets were indexed and integrated with iMOSFLM [32] or XDS [33]—and scaled using AIMLESS [34, 35] or SCALA [36]. Phasing was performed by molecular replacement with Phaser using the previously solved structure of EcDsbA as a search model (PDB code 1FVK). The final structure was obtained after several rounds of manual model building using Coot and refinement in phenix.refine. Structures, factors and coordinates have been deposited in the Protein Data Bank (PDB; http://www.pdb.org) under the accession codes of 6PMF, 6POQ, 6POH, 6PML, 6PVY, 6POI, and 6PVZ.

EcDsbA [2] = target: T1, EcDsbA; assay: waterLOGSY ligand-detected NMR binding; conditions: compound 500 µM, unlabelled EcDsbA 10 µM, 298 K
Description: (§1) To validate the binding of benzofuran analogues, three ligand-detected NMR methods, saturation-transfer difference (STD), Carr–Purcell–Meiboom–Gill (CPMG), and water–ligand observed via gradient spectroscopy (waterLOGSY), were employed to detect protein-ligand binding between the benzofurans and EcDsbA (Figure 2C). These experiments were designed as a primary screening tool to select analogues to undergo further affinity evaluation and prioritise compounds for crystal soaking. […] In a good agreement with this finding, eight out of nine benzofurans that passed all three ligand-detected experiments have their co-crystal structures successfully solved; in contrast, five compounds that failed two ligand-detected experiments only have one co-structure solved (Table 2).
(§2) For ligand-detected NMR spectroscopy, two samples (compound alone and compound + protein) were prepared for each compound. Unlabelled EcDsbA was prepared at 10 µM in a buffer of 50 mM sodium phosphate, pH 6.8, 25 mM NaCl, 100 µM 4,4-dimethyl 4-silapentane-1-sulfonic acid (DSS), and 10% ^2H2O. Compound was added to the protein sample to achieve final concentration of 500 µM (2% ^2H6-DMSO). ^1H 1D spectrum was acquired for each compound at 500 µM as a reference spectrum. All ligand-detected NMR experiments (STD, CPMG, and waterLOGSY) were acquired at 298 K on a Bruker Avance III 600 MHz NMR spectrometer equipped with a 5 mm TXI CryoProbe (Bruker, Billerica, MA, USA). STD spectra were acquired with 3 s of saturation at 1 ppm (on-resonance) and 33.3 ppm (off-resonance). WaterLOGSY spectra were acquired for compound alone and compound + protein with a 0.52 s acquisition time, 3 s relaxation delay, and 3 s Nuclear Overhauser effect (NOE) mixing time. CPMG spectra for compound alone and compound + protein were acquired with a constant spin echo delay of 1 ms and spin-lock period of 350 ms. The data was analysed using Topspin3.5 (Bruker) and DSS was used to reference the spectra.

EcDsbA [3] = target: T1, EcDsbA; assay: CPMG ligand-detected NMR binding; conditions: compound 500 µM, unlabelled EcDsbA 10 µM, 298 K, spin-lock 350 ms
Description: as §1, §2

EcDsbA [4] = target: T1, EcDsbA; assay: STD ligand-detected NMR binding; conditions: compound 500 µM, unlabelled EcDsbA 10 µM, 298 K
Description: as §1, §2

[5] = Solubility noted in the HSQC titration; assay type: physicochemical; conditions: HSQC titration buffer
Description: The ligand efficiency (LE) ranged from 0.15 to 0.24 kcal mol^−1 HAC^−1. […] Biophysical characterisation of 25 is illustrated in Figure 2. […] Alkyl substituents at C-6 flipped the compound orientation within the hydrophobic groove and disrupt the polar interaction between the imidazole side chain of His32 and carboxyl group of the compound present in the 25 co-structure (Figure 1C). […] It was evident in the co-crystal structure of p-anisidine 16 that the p-methoxy group had caused the benzofuran scaffold to shift further along the hydrophobic groove, possibly disrupting the π-stacking interaction with His32 and polar interactions with Gln164 (Figure 1B).

15N-labelled EcDsbA = target: T2, 15N-labelled EcDsbA (Escherichia coli, UniProt P0AEG4); assay: 2D 1H-15N HSQC chemical shift perturbation / titration; assay type: binding
T2 construct: made in house; protein recovered from the periplasm of the expressing cells
Experimental: Compounds that passed at least one ligand-detected NMR experiment were further validated by 2D ^1H-^15N heteronuclear single quantum coherence (HSQC) spectroscopy. In HSQC experiments, chemical shift perturbations (CSP) of backbone amide resonances of ^15N-labelled EcDsbA were measured upon addition of compound at 1 mM. […] In accordance with the crystal structure, the majority of the residues perturbed by 1 mM of benzofuran analogues in single-point HSQCs are located around the hydrophobic groove which is an important binding site for DsbA substrates (Figure 2A). […] Eight compounds produced large enough CSP (>0.04 ppm) to enable HSQC titration and KD determination.
For the 2D ^1H-^15N-HSQC titration experiment, 100 µM of ^15N-labelled EcDsbA in a buffer of 50 mM HEPES, pH 6.8, 50 mM NaCl, 2% ^2H6-DMSO, and 10% ^2H2O, was titrated with increasing concentrations of compounds ([…], 0.125, 0.25, 0.5, and 1 mM). Data were acquired on a Bruker 600 MHz spectrometer equipped with a 5 mm TXI CryoProbe and a Bruker 700 MHz spectrometer equipped with a 5 mm TXI CryoProbe. Data was processed by Topspin3.5 (Bruker) and analysed by Sparky (T. D. Goddard and D. G. Kneller, SPARKY 3, University of California, San Francisco (UCSF)). Weighted chemical shift perturbations (CSP) that were observed upon addition of compounds to EcDsbA were calculated using an Equation (1) in [41]: (1) CSP=ΔδH^2+(0.2×ΔδN)^2 where ΔδH and ΔδN denote the change in chemical shift of amide proton and nitrogen resonances upon addition of the compound. Equilibrium dissociation constants (KD) were determined by fitting the plot of CSP against compound concentrations using one site with ligand depletion model (Equation (2)): (2) CSP=CSPmax×[(KD+Pt+Lt)−((KD+Pt+Lt)^2−4×Pt×Lt)]/2×Pt where CSP is the measured CSP at a given concentration, CSPmax is the CSP observed at the saturating concentration of compound, and Pt and Lt are the total protein and compound concentrations. The ligand efficiency (LE) is calculated using the Equation (3) in [42]: (3) LE=−ΔG/HAC=−RTln(KD)/HAC where R is gas constant (1.9858775 cal K^−1 mol^−1), T is temperature (298 K), KD is equilibrium dissociation constant, and HAC is the number of heavy (non-hydrogen) atoms.

T1 sequence (P0AEG4 20-208): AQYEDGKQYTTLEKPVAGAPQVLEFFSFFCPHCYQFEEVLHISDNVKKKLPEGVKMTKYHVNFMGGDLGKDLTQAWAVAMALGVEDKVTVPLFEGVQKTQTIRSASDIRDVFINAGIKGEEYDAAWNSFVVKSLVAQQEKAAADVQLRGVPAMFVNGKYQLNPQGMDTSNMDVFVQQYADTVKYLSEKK
T2 sequence (P0AEG4 20-208): as above

SMILES | Crystal Structure in EcDsbA (EcDsbA [1]) | wLOGSY (EcDsbA [2]) | melting point | CPMG (EcDsbA [3]) | STD (EcDsbA [4]) | solubility [5] | Kd (15N-labelled EcDsbA)
O=C(O)Cc1coc2cc(Nc3ccccc3)ccc12 [compound 15, 2-(6-(Phenylamino)benzofuran-3-yl)acetic acid] | Yes | Pass | 127 to 130 °C | Pass | Pass | poor solubility | 
O=C(Cc1ccccc1F)NC(C(=O)O)c1coc2cc(Br)ccc12 (stereo not drawn) [compound 49, 2-(6-Bromobenzofuran-3-yl)-2-(2-(2-fluorophenyl)acetamido)acetic acid] | No | Pass | 209 to 211 °C | Fail | Fail |  | > 1000 µM

From publication PMC6832960, “The Fragment-Based Development of a Benzofuran Hit as a New Class of Escherichia coli DsbA Inhibitors” (Molecules, 2019)
